From PMC10608315, “Organic Synthesis of New Secosteroids from Fucosterol, Its Intestinal Absorption by Caco-2 Cells, and Simulation of the Biological Activities of Vitamin D” (Marine Drugs, 2023)
Like-named read-outs stand apart in the source and are kept apart here.

How the values were obtained:
human breast cancer cell = tested on: human breast cancer cell; parameters: method as in PMID 10762752; details: compared with 1,25-di(OH)-vitamin D3; cited from earlier work
[1] = tested on: chemically induced cancers; details: cited from earlier work
[2] = parameters: method as in PMID 12628523; details: cited from earlier work
Caco-2 = tested on: Caco-2; parameters: method as in PMID 9184144; details: cholesterol versus sitosterol; cited from earlier work
Caco-2 cells [3] = test: Intestinal absorption of mixed micellar secosteroid by differentiated Caco-2 monolayers in Transwell plates (remaining, uptake, transport); details: summary of Caco-2 uptake and transport, 24 h
[4] = parameters: method as in PMID 9598513, PMID 10389917; details: potential cancer therapy; cited from earlier work
Caco-2 cells [5] = details: human, Caco-2, 24 h, 1 µM
rickets = details: rats; cited from earlier work

C=C1/C(=C\C=C2/CCC[C@]3(C)[C@@H]([C@H](C)CC[C@@H](CC)C(C)C)CC[C@@H]23)C[C@@H](O)C[C@@H]1O [1-OH-vitamin D5]
Inhibition of human breast cancer cell growth (human breast cancer cell): as effective as 1,25-di(OH)-vitamin D3
Effectiveness compared with 1,25-di(OH)-vitamin D3 [1]: less effective than 1,25-di(OH)-vitamin D3
Treatment of chemically induced cancers ([1]; mice and rats): effectively treated
Side effects like weight loss and disruptions to calcium levels [2]: markedly fewer side effects

CC(C)CCC[C@@H](C)[C@H]1CC[C@H]2[C@@H]3CC=C4C[C@@H](O)CC[C@]4(C)[C@H]3CC[C@]12C [cholesterol]
Uptake and transport by Caco-2 (Caco-2): higher for cholesterol than for sitosterol

C=C1CC[C@H](O)C/C1=C/C=C1\CCC[C@]2(C)[C@@H]([C@H](C)CCCC(C)C)CC[C@@H]12 [Vitamin D3, cholecalciferol]
Intestinal absorption (uptake and transport) ranking (Caco-2 cells [3]): compound 4 ≥ vitamin D3 ≥ compound 3

C=C1C(=CC=C2CCCC3(C)C2CCC3C(C)CCCC(C)(C)O)CC(O)CC1O (stereo not shown) [1,25-di(OH)-Vitamin D3]
Side effects in clinical trials [4]: side effects like hypercalcemia [75] and hypercalciuria

C=C1CCC(O)CC1=CC=C1CCCC2(C)C1CCC2C(C)CCC(=CC)C(C)C [Compound 3, (5Z,7E,24E)-(3S)-9,10-seco-5,7,10(19),24(24^1)-stigmastatetraen-3-ol]
Concentration of micellar secosteroid remaining on the apical side (Caco-2 cells [5]): significantly higher concentrations than vitamin D3
Intestinal absorption (uptake and transport) ranking (Caco-2 cells [5]): compound 4 ≥ vitamin D3 ≥ compound 3

C=C1CCC(O)C/C1=C/C=C1\CCCC2(C)C1CCC2C(C)CCC(CC)C(C)C (stereo not shown) [Vitamin D5]
Anti-rickets activity (rickets): very low anti-rickets activity

C=C(C)C(=CC)CCC(C)C1CCC2C(=CC=C3CC(O)CCC3=C)CCCC21C [Compound 4, (5Z,7E,24E)-(3S)-9,10-seco-5,7,10(19),24(24^1),25(27)-stigmastapentaen-3-ol]
Concentration of micellar secosteroid remaining on the apical side (Caco-2 cells [5]): significantly higher concentrations than vitamin D3
Intestinal absorption (uptake and transport) ranking (Caco-2 cells [5]): compound 4 ≥ vitamin D3 ≥ compound 3
Secosteroid transported from the monolayer into the basolateral medium (Caco-2 cells [5]): No significant deviation was observed between vitamin D3 and compound 4
